Measured values published in patent US20180312844A1, “TREATMENT FOR CANCER METASTASIS” (The Board of Regents of the UIniversity of Texas System, priority 2015, published 2018).

Tests used:
[1] = test system: circulating human melanoma cells; assay: Frequency of circulating melanoma cells in the blood by flow cytometry; type: in vivo, NSG mice
Text: (§1) Melanoma specimens were obtained with informed consent from all patients according to protocols approved by the Institutional Review Boards of the University of Michigan Medical School (IRBMED approvals HUM00050754 and HUM00050085 (Quintana et al., 2012) and the University of Texas Southwestern Medical Center. Unless otherwise indicated, patient-derived xenografts were established by subcutaneously injecting 100 freshly dissociated melanoma cells into the right flanks of NOD/SCID IL2Rγ^null (NSG) mice in 25% high-protein Matrigel, or by injecting intravenously or intrasplenically, depending on the experiment. The subcutaneous tumors were measured every 10 days until any tumor in the mouse cohort reached 2.5 cm in its largest diameter. Mice were monitored daily for signs of distress and euthanized according to a standard body condition score or when their tumors reached 2.5 cm in largest diameter, whichever came first. […] After intravenous and intrasplenic injections mice were imaged every month until the bioluminescence signal was saturated, then mice were euthanized and organs were analyzed visually and by bioluminescence imaging for the presence of micro and macrometastases. […] Reporters of mitochondrial mass, mitochondrial membrane potential, and ROS were used to stain equal numbers of dissociated melanoma cells and analyzed by flow cytometry. […]

[2] = test system: human melanoma cells (M405, M481, UT10) transplanted subcutaneously; assay: Growth of primary subcutaneous tumors of patient-derived melanoma xenografts in NSG mice; type: in vivo
Text: as §1

[3] = test system: human melanoma metastases in visceral organs; assay: Metastatic disease burden by total bioluminescence signal from visceral organs; type: in vivo, NSG mice
Text: as §1

melanoma = details: at 5 years; 2011 meta-analysis; adjuvant treatment of melanoma; cited from earlier work

With `CN(Cc1cnc2nc(N)nc(N)c2n1)c1ccc(C(=O)N[C@@H](CCC(=O)O)C(=O)O)cc1` [Methotrexate] the “frequency of circulating melanoma cells in the blood” value ([1]; methotrexate 1.25 mg/kg/day with thymidine and hypoxanthine, M405, M481, UT10, FIG. 5C) was “significantly reduced”, the “growth of primary subcutaneous tumors” value ([2]; low dose methotrexate 1.25 mg/kg/day with thymidine and hypoxanthine, M405, M481, UT10, vs DMSO control, FIG. 5B) was “no significant effect” and the metastatic disease burden ([3]; methotrexate 1.25 mg/kg/day with thymidine and hypoxanthine, M405, M481, UT10, FIG. 5D) was “significantly reduced”.
For interferon, the increase in survival (melanoma) is given as 3%.
For `CC(=O)N[C@@H](CS)C(=O)O` [NAC, N-acetyl-cysteine], the “frequency of melanoma cells in the blood” value ([1]; NAC 200 mg/kg/day s.c., mice transplanted with M405 and UT10, FIG. 4B) was “significantly increased”, the “growth of primary subcutaneous tumors” value ([2]; NAC 200 mg/kg/day, daily subcutaneous injection, melanomas M405, M481, UT10, vs PBS, FIG. 4A) was “In no case did NAC treatment significantly affect” and the metastatic disease burden ([3]; NAC 200 mg/kg/day s.c., mice transplanted with M405 and M481, FIG. 4C) was “significantly increased”.
